Results published in patent US20050197350A1, “Novel quinoline, tetrahydroquinazoline, and pyrimidine derivatives and methods of treatment related to the use thereof” (TAISHO PHARMACEUTICAL CO., LTD., priority 2003, published 2005).

system: MCH receptors; assay: MCH receptor activity class (method not given); conditions: class by percent of control at 10^-7 M or IC50

| SMILES | class |
| --- | --- |
| CN(C)c1nc(N[C@H]2CC[C@@H](CNC(=O)Nc3c(Cl)cccc3Cl)CC2)nc2c1CCCC2 [compound 2491, N-(2,6-dichlorophenyl)-N′-[(cis-4-{[4-(dimethylamino)-5,6,7,8-tetrahydroquinazolin-2-yl]amino}cyclohexyl)methyl]urea] | 1 (Class 1: The value of percent of control at 10^−7 M was less than 40% or the value of IC50 was less than 50 nM.) |
| COc1ccc(C)cc1NC(=O)NC[C@H]1CC[C@@H](Nc2nc3c(c(N(C)C)n2)CCCC3)CC1 [compound 2492] | 3 (Class 3 The value of percent of control at 10^−7 M was more than 60% or the value of IC50 was more than 200 nM.) |
| Cc1cccc([N+](=O)[O-])c1NC(=O)NC[C@H]1CC[C@@H](Nc2nc3c(c(N(C)C)n2)CCCC3)CC1 [compound 2493] | 3 (Class 3 The value of percent of control at 10^−7 M was more than 60% or the value of IC50 was more than 200 nM.) |
| CN(C)c1nc(N[C@H]2CC[C@@H](CNC(=O)Nc3ccc(F)c(F)c3)CC2)nc2c1CCCC2 [compound 2494] | 3 (Class 3 The value of percent of control at 10^−7 M was more than 60% or the value of IC50 was more than 200 nM.) |
| CN(C)c1nc(N[C@H]2CC[C@@H](CNC(=O)Nc3cc(F)cc(F)c3)CC2)nc2c1CCCC2 [compound 2495] | 3 (Class 3 The value of percent of control at 10^−7 M was more than 60% or the value of IC50 was more than 200 nM.) |
| CN(C)c1nc(N[C@H]2CC[C@@H](CNC(=O)Nc3ccc(F)c(Cl)c3)CC2)nc2c1CCCC2 [compound 2496] | 3 (Class 3 The value of percent of control at 10^−7 M was more than 60% or the value of IC50 was more than 200 nM.) |

same assay, conditions: class by percent of control at 10^−7 M or IC50

| SMILES | class |
| --- | --- |
| Cc1cnc(N[C@H]2CC[C@@H](CNC(=O)c3ccccc3)CC2)nc1N(C)C [compound 2690, N-[(cis-4-{[4-(dimethylamino)-5-methylpyrimidin-2-yl]amino}cyclohexyl)methyl]benzamide] | 3 (Class 3 The value of percent of control at 10^−7 M was more than 60% or the value of IC50 was more than 200 nM.) |
| Cc1ccc(C(=O)NC[C@H]2CC[C@@H](Nc3ncc(C)c(N(C)C)n3)CC2)cc1 [compound 2691] | 3 (Class 3 The value of percent of control at 10^−7 M was more than 60% or the value of IC50 was more than 200 nM.) |
| Cc1cnc(N[C@H]2CC[C@@H](CNC(=O)c3ccc(F)c(F)c3)CC2)nc1N(C)C [compound 2692, N-[(cis-4-{[4-(dimethylamino)-5-methylpyrimidin-2-yl]amino}cyclohexyl)methyl]-3,4-difluorobenzamide] | 2 (Class 2: The value of percent of control at 10^−7 M was from 40% to 60% or the value of IC′50 was from 50 nM to 200 nM.) |
| COc1ccc(C(=O)NC[C@H]2CC[C@@H](Nc3ncc(C)c(N(C)C)n3)CC2)cc1 [compound 2693] | 3 (Class 3 The value of percent of control at 10^−7 M was more than 60% or the value of IC50 was more than 200 nM.) |
| COc1cc(OC)cc(C(=O)NC[C@H]2CC[C@@H](Nc3ncc(C)c(N(C)C)n3)CC2)c1 [compound 2694, N-[(cis-4-{[4-(dimethylamino)-5-methylpyrimidin-2-yl]amino}cyclohexyl)methyl]-3,5-dimethoxybenzamide] | 1 (Class 1: The value of percent of control at 10^−7 M was less than 40% or the value of IC50 was less than 50 nM.) |
| Cc1ccc(C(=O)NC[C@H]2CC[C@@H](Nc3ncc(C)c(N(C)C)n3)CC2)cc1F [compound 2695, N-[(cis-4-{[4-(dimethylamino)-5-methylpyrimidin-2-yl]amino}cyclohexyl)methyl]-3-fluoro-4-methylbenzamide] | 2 (Class 2: The value of percent of control at 10^−7 M was from 40% to 60% or the value of IC′50 was from 50 nM to 200 nM.) |
| Cc1cc(C(=O)NC[C@H]2CC[C@@H](Nc3ncc(C)c(N(C)C)n3)CC2)ccc1F [compound 2696] | 2 (Class 2: The value of percent of control at 10^−7 M was from 40% to 60% or the value of IC′50 was from 50 nM to 200 nM.) |
| Cc1cnc(N[C@H]2CC[C@@H](CNC(=O)c3cccc(C(F)(F)F)c3)CC2)nc1N(C)C [compound 2697, N-[(cis-4-{[4-(dimethylamino)-5-methylpyrimidin-2-yl]amino}cyclohexyl)methyl]-3-(trifluoromethyl)benzamide] | 1 (Class 1: The value of percent of control at 10^−7 M was less than 40% or the value of IC50 was less than 50 nM.) |
| Cc1cnc(N[C@H]2CC[C@@H](CNC(=O)c3ccc(C(F)(F)F)cc3)CC2)nc1N(C)C [compound 2698] | 3 (Class 3 The value of percent of control at 10^−7 M was more than 60% or the value of IC50 was more than 200 nM.) |
| Cc1cnc(N[C@H]2CC[C@@H](CNC(=O)c3cccc(OC(F)(F)F)c3)CC2)nc1N(C)C [compound 2699, N-[(cis-4-{[4-(dimethylamino)-5-methylpyrimidin-2-yl]amino}cyclohexyl)methyl]-3-(trifluoromethoxy)benzamide] | 2 (Class 2: The value of percent of control at 10^−7 M was from 40% to 60% or the value of IC′50 was from 50 nM to 200 nM.) |
| Cc1cnc(N[C@H]2CC[C@@H](CNC(=O)c3ccc(OC(F)(F)F)cc3)CC2)nc1N(C)C [compound 2700, N-[(cis-4-{[4-(dimethylamino)-5-methylpyrimidin-2-yl]amino}cyclohexyl)methyl]-4-(trifluoromethoxy)benzamide] | 2 (Class 2: The value of percent of control at 10^−7 M was from 40% to 60% or the value of IC′50 was from 50 nM to 200 nM.) |
| Cc1cnc(N[C@H]2CC[C@@H](CNC(=O)c3ccc(C#N)cc3)CC2)nc1N(C)C [compound 2701] | 2 (Class 2: The value of percent of control at 10^−7 M was from 40% to 60% or the value of IC′50 was from 50 nM to 200 nM.) |
| Cc1cnc(N[C@H]2CC[C@@H](CNC(=O)c3ccc(Br)cc3)CC2)nc1N(C)C [compound 2702] | 1 (Class 1: The value of percent of control at 10^−7 M was less than 40% or the value of IC50 was less than 50 nM.) |
| Cc1cc(C(=O)NC[C@H]2CC[C@@H](Nc3ncc(C)c(N(C)C)n3)CC2)ccc1Br [compound 2703, 4-bromo-N-[(cis-4-{[4-(dimethylamino)-5-methylpyrimidin-2-yl]amino}cyclohexyl)methyl]-3-methylbenzamide] | 1 (Class 1: The value of percent of control at 10^−7 M was less than 40% or the value of IC50 was less than 50 nM.) |
| Cc1cnc(N[C@H]2CC[C@@H](CNC(=O)c3ccc(F)c(Cl)c3)CC2)nc1N(C)C [compound 2704] | 1 (Class 1: The value of percent of control at 10^−7 M was less than 40% or the value of IC50 was less than 50 nM.) |
| Cc1cnc(N[C@H]2CC[C@@H](CNC(=O)c3ccc(C(F)(F)F)c(F)c3)CC2)nc1N(C)C [compound 2705, N-[(cis-4-{[4-(dimethylamino)-5-methylpyrimidin-2-yl]amino}cyclohexyl)methyl]-3-fluoro-4-(trifluoromethyl)benzamide] | 2 (Class 2: The value of percent of control at 10^−7 M was from 40% to 60% or the value of IC′50 was from 50 nM to 200 nM.) |
| Cc1cnc(N[C@H]2CC[C@@H](CNC(=O)c3cc(Cl)cc(Cl)c3)CC2)nc1N(C)C [compound 2706, 3,5-dichloro-N-[(cis-4-{[4-(dimethylamino)-5-methylpyrimidin-2-yl]amino}cyclohexyl)methyl]benzamide] | 1 (Class 1: The value of percent of control at 10^−7 M was less than 40% or the value of IC50 was less than 50 nM.) |
| Cc1cnc(N[C@H]2CC[C@@H](CNC(=O)c3ccc(Cl)c(Cl)c3)CC2)nc1N(C)C [compound 2707, 3,4-dichloro-N-[(cis-4-{[4-(dimethylamino)-5-methylpyrimidin-2-yl]amino}cyclohexyl)methyl]benzamide] | 1 (Class 1: The value of percent of control at 10^−7 M was less than 40% or the value of IC50 was less than 50 nM.) |
| Cc1cnc(N[C@H]2CC[C@@H](CNC(=O)c3ccc4c(c3)OC(F)(F)O4)CC2)nc1N(C)C [compound 2708] | 2 (Class 2: The value of percent of control at 10^−7 M was from 40% to 60% or the value of IC′50 was from 50 nM to 200 nM.) |
| Cc1cnc(N[C@H]2CC[C@@H](CNC(=O)c3ccc(-c4ccccc4)cc3)CC2)nc1N(C)C [compound 2709] | 3 (Class 3 The value of percent of control at 10^−7 M was more than 60% or the value of IC50 was more than 200 nM.) |
| Cc1cnc(N[C@H]2CC[C@@H](CNC(=O)c3ccc(Cl)cc3)CC2)nc1N(C)C [compound 2710, 4-chloro-N-[(cis-4-{[4-(dimethylamino)-5-methylpyrimidin-2-yl]amino}cyclohexyl)methyl]benzamide] | 2 (Class 2: The value of percent of control at 10^−7 M was from 40% to 60% or the value of IC′50 was from 50 nM to 200 nM.) |
| COc1cc(OC)cc(C(=O)NC[C@H]2CC[C@@H](Nc3nc(C)cc(N(C)C)n3)CC2)c1 [compound 2711] | 2 (Class 2: The value of percent of control at 10^−7 M was from 40% to 60% or the value of IC′50 was from 50 nM to 200 nM.) |
| Cc1cnc(NC[C@H]2CC[C@@H](NC(=O)c3ccccc3)CC2)nc1N(C)C [compound 2712, N-[cis-4-({[4-(dimethylamino)-5-methylpyrimidin-2-yl]amino}methyl)cyclohexyl]benzamide] | 3 (Class 3 The value of percent of control at 10^−7 M was more than 60% or the value of IC50 was more than 200 nM.) |
| Cc1ccc(C(=O)N[C@H]2CC[C@@H](CNc3ncc(C)c(N(C)C)n3)CC2)cc1 [compound 2713] | 3 (Class 3 The value of percent of control at 10^−7 M was more than 60% or the value of IC50 was more than 200 nM.) |
| Cc1cnc(NC[C@H]2CC[C@@H](NC(=O)c3ccc(F)c(F)c3)CC2)nc1N(C)C [compound 2714] | 3 (Class 3 The value of percent of control at 10^−7 M was more than 60% or the value of IC50 was more than 200 nM.) |
| COc1ccc(C(=O)N[C@H]2CC[C@@H](CNc3ncc(C)c(N(C)C)n3)CC2)cc1 [compound 2715] | 3 (Class 3 The value of percent of control at 10^−7 M was more than 60% or the value of IC50 was more than 200 nM.) |
| COc1cc(OC)cc(C(=O)N[C@H]2CC[C@@H](CNc3ncc(C)c(N(C)C)n3)CC2)c1 [compound 2716, N-[cis-4-({[4-(dimethylamino)-5-methylpyrimidin-2-yl]amino}methyl)cyclohexyl]-3,5-dimethoxybenzamide] | 2 (Class 2: The value of percent of control at 10^−7 M was from 40% to 60% or the value of IC′50 was from 50 nM to 200 nM.) |
